Test results: US20230174530A1, “N-(PHENYLAMINOCARBONYL) TETRAHYDRO-ISOQUINOLINES AND RELATED COMPOUNDS AS MODULATORS OF GPR65” (PATHIOS THERAPEUTICS LIMITED, priority 2020, published 2023)

target: T1, human recombinant GPR65 (Homo sapiens, UniProt Q8IYL9); test: Human GPR65 cAMP HTRF antagonist assay; assay type: cell-based; settings: 1321N1-hrGPR65 cells stimulated at assay pH 7.2; suppression of cAMP rise; read-out: hGPR65 IC50
T1 construct: host or cells: 1321N1 human astrocytoma cells (1321N1-hrGPR65)
Protocol: Human GPR65 Cyclic Adenosine Monophosphate (cAMP) Homogeneous Time Resolved Fluorescence (HTRF) Antagonist Assay Procedure
IC50 data was obtained by the following procedure:
1321N1 human astrocytoma cells stably expressing human recombinant GPR65 (1321N1-hrGPR65 cells, EuroscreenFast) were cultured according to the vendor's instructions.
Compounds were tested for their ability to antagonise GPR65, through measuring the concentration of cytoplasmic cAMP following treatment of the cells at a pH of 7.2 to activate GPR65 signalling and addition of the compound to be tested. The extent to which the expected rise in cAMP concentration upon GPR65 activation was suppressed by the added compound is indicative of its potency. The assay was carried out according to EuroscreenFast assay methodology as follows.
On the day of the assay, test compounds were added to 384-well, low volume, white microtiter plates by acoustic dispensing. KRH buffer (5 mM KCl, 1.25 mM MgSO4, 124 mM NaCl, 25 mM HEPES, 13.3 mM Glucose, 1.25 mM KH2PO4 and 1.45 mM CaCl2) was adjusted to pH 6.5, pH 7.6 and pH 8.4 by adding NaOH. 1321N1-hGPR65 cells were rapidly thawed and diluted in KRH, pH 7.6 prior to centrifugation at 300×g for 5 min and resuspension in assay buffer (KRH, pH 7.6, supplemented with 1 mM 3-isobutyl-1-methylxanthine (IBMX) and 200 μM ethylenediaminetetraacetic acid (EDTA)). Cells were added to assay plates at a density of 2,000 cells per well in a volume of 5 μl. Assay plates were briefly centrifuged at 100×g and then incubated at room temperature for 30 min. Cells were stimulated by the addition of 5 μL KRH, pH 6.5, to achieve an assay pH of 7.2, while control wells received 5 μl KRH, pH 8.4 to achieve an assay pH of 7.9. Assay plates were briefly centrifuged at 100×g and then incubated at room temperature for 30 min.
Accumulation of cAMP was detected by cAMP HTRF kit (Cisbio). d2-labeled cAMP and cryptate-labeled anti-cAMP antibody in Lysis and Detection Buffer (Cisbio) were added to assay plates, and the plates were incubated at room temperature for 1 h. HTRF measurements were performed using a Pherastar FSX instrument. Acceptor and donor emission signals were measured at 665 nm and 620 nm, respectively, and HTRF ratios were calculated as signal665 nm/signal620 nm×10^4. Data were normalised to high and low control values and fitted with 4-parameter logistic regression to determine hGPR65 IC50 values for the test compounds, which are shown in Table 1.

T1 sequence (Q8IYL9 whole entry): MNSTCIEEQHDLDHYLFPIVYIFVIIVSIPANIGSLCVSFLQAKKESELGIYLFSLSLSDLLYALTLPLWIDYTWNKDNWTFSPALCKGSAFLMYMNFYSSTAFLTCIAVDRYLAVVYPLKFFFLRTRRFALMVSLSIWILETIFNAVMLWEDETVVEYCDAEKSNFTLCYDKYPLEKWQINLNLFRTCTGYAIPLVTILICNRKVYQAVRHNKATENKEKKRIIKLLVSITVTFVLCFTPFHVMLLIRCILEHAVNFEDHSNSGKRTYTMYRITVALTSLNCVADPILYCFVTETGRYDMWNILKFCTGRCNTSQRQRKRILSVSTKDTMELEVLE

Compound	IC50 [µM]
O=C(Nc1ccc(C(F)(F)F)c(Cl)c1)N1CCc2cc(C(F)(F)F)ccc2C1 [Compound 72, N-(3-Chloro-4-(trifluoromethyl)phenyl)-6-(trifluoromethyl)-3,4-dihydroisoquinoline-2(1H)-carboxamide]	> 5
O=C(Nc1ccc(C(F)(F)F)c(Cl)c1)N1CCc2cc(=O)[nH]cc2C1 [Compound 74, N-(3-Chloro-4-(trifluoromethyl)phenyl)-6-oxo-3,4,6,7-tetrahydro-2,7-naphthyridine-2(1H)-carboxamide]	< 0.5
O=C(Nc1ccc(Cl)c(Cl)c1)N1CCc2cc(=O)[nH]cc2C1 [Compound 76, N-(3,4-Dichlorophenyl)-6-oxo-3,4,6,7-tetrahydro-2,7-naphthyridine-2(1H)-carboxamide]	< 0.5
O=C(Nc1ccc(Cl)c(C(F)(F)F)c1)N1CCc2[nH]c(=O)ccc2C1 [Compound 77, N-(4-Chloro-3-(trifluoromethyl)phenyl)-2-oxo-1,5,7,8-tetrahydro-1,6-naphthyridine-6(2H)-carboxamide]	> 5
O=C(Nc1ccc(Cl)c(Cl)c1)N1CCc2[nH]c(=O)ccc2C1 [Compound 78, N-(3,4-Dichlorophenyl)-2-oxo-1,5,7,8-tetrahydro-1,6-naphthyridine-6(2H)-carboxamide]	> 5
O=C(Nc1ccc(C(F)(F)F)c(Cl)c1)N1CCc2c[n+]([O-])ccc2C1 [Compound 79, 6-((3-Chloro-4-(trifluoromethyl)phenyl)carbamoyl)-5,6,7,8-tetrahydro-2,6-naphthyridine 2-oxide]	< 0.5
O=C(Nc1ccc(Cl)c(Cl)c1)N1CCc2oncc2C1 [Compound 80, N-(3,4-Dichlorophenyl)-6,7-dihydroisoxazolo[4,5-c]pyridine-5(4H)-carboxamide]	0.5 to 5
O=C(Nc1ccc(Cl)c(Cl)c1)N1CCc2ccccc2C1 [Compound 81, N-(3,4-Dichlorophenyl)-3,4-dihydroisoquinoline-2(1H)-carboxamide]	0.5 to 5
Nc1cc2c(cn1)CCN(C(=O)Nc1ccc(Cl)c(Cl)c1)C2 [Compound 82, 7-Amino-N-(3,4-dichlorophenyl)-3,4-dihydro-2,6-naphthyridine-2(1H)-carboxamide]	< 0.5
Nc1cc2c(cn1)CCN(C(=O)Nc1ccc(C(F)(F)F)c(Cl)c1)C2 [Compound 83, 7-Amino-N-(3-chloro-4-(trifluoromethyl)phenyl)-3,4-dihydro-2,6-naphthyridine-2(1H)-carboxamide]	< 0.5
Nc1cc2c(cn1)CN(C(=O)Nc1ccc(Cl)c(Cl)c1)CC2 [Compound 84, 6-Amino-N-(3,4-dichlorophenyl)-3,4-dihydro-2,7-naphthyridine-2(1H)-carboxamide]	> 5
O=C(Nc1ccc(Cl)c(Cl)c1)N1CCc2cc(F)ncc2C1 [Compound 85, N-(3,4-dichlorophenyl)-6-fluoro-3,4-dihydro-2,7-naphthyridine-2(1H)-carboxamide]	< 0.5
O=C(Nc1ccc(Cl)c(Cl)c1)N1CCc2cnc(F)cc2C1 [Compound 86, N-(3,4-Dichlorophenyl)-7-fluoro-3,4-dihydro-2,6-naphthyridine-2(1H)-carboxamide]	0.5 to 5
O=C(Nc1ccc(C(F)(F)F)c(Cl)c1)N1CCc2cnc(F)cc2C1 [Compound 87, N-(3-Chloro-4-(trifluoromethyl)phenyl)-7-fluoro-3,4-dihydro-2,6-naphthyridine-2(1H)-carboxamide]	0.5 to 5
O=C(Nc1ccc(Cl)c(Cl)c1)N1CCc2[nH]c(=O)ncc2C1 [Compound 88, N-(3,4-Dichlorophenyl)-2-oxo-1,5,7,8-tetrahydropyrido[4,3-d]pyrimidine-6(2H)-carboxamide]	0.5 to 5
O=C(Nc1ccc(Cl)c(C(F)(F)F)c1)N1CCc2cc(=O)[nH]cc2C1 [Compound 89, N-(4-chloro-3-(trifluoromethyl)phenyl)-6-oxo-3,4,6,7-tetrahydro-2,7-naphthyridine-2(1H)-carboxamide]	0.5 to 5
O=C(Nc1ccc(C(F)(F)F)c(Cl)c1)N1CCc2cnc(Cl)cc2C1 [Compound 90, 7-Chloro-N-(3-chloro-4-(trifluoromethyl)phenyl)-3,4-dihydro-2,6-naphthyridine-2(1H)-carboxamide]	0.5 to 5

Compound	IC50 [µM]
O=C(Nc1ccc(C(F)(F)F)c(Cl)c1)N1CCc2cc(Cl)ncc2C1 [Compound 91, 6-Chloro-N-(3-chloro-4-(trifluoromethyl)phenyl)-3,4-dihydro-2,7-naphthyridine-2(1H)-carboxamide]	0.5 to 5
Cn1cc2c(cc1=O)CCN(C(=O)Nc1ccc(Cl)c(Cl)c1)C2 [Compound 92, N-(3,4-Dichlorophenyl)-7-methyl-6-oxo-3,4,6,7-tetrahydro-2,7-naphthyridine-2(1H)-carboxamide]	> 5
CC1c2ccc(F)cc2CCN1C(=O)Nc1ccc(Cl)c(Cl)c1 (stereo not shown) [Compound 93, N-(3,4-Dichlorophenyl)-6-fluoro-1-methyl-3,4-dihydroisoquinoline-2(1H)-carboxamide]	< 0.5
O=C(Nc1ccc(C(F)(F)F)c(Cl)c1)N1CCc2cc[n+]([O-])cc2C1 [Compound 94, 7-((3-Chloro-4-(trifluoromethyl)phenyl)carbamoyl)-5,6,7,8-tetrahydro-2,7-naphthyridine 2-oxide]	> 5
O=C(Nc1ccc(Cl)c(Cl)c1)N1CCc2cc(O)ccc2C1 [Compound 95, N-(3,4-Dichlorophenyl)-6-hydroxy-3,4-dihydroisoquinoline-2(1H)-carboxamide]	> 5
O=C(Nc1ccc(Cl)c(Cl)c1)N1CCc2ccc(O)cc2C1 [Compound 96, N-(3,4-Dichlorophenyl)-7-hydroxy-3,4-dihydroisoquinoline-2(1H)-carboxamide]	0.5 to 5
O=C(Nc1ccc(C(F)(F)F)c(Cl)c1)N1CCc2ccnc(Cl)c2C1 [Compound 97, 8-Chloro-N-(3-chloro-4-(trifluoromethyl)phenyl)-3,4-dihydro-2,7-naphthyridine-2(1H)-carboxamide]	> 5
O=C(Nc1ccc(Cl)c(Cl)c1)N1CCc2nocc2C1 [Compound 98, N-(3,4-Dichlorophenyl)-6,7-dihydroisoxazolo[4,3-c]pyridine-5(4H)-carboxamide]	0.5 to 5
O=C(Nc1ccc(Cl)c(Cl)c1)N1CCc2c[nH]c(=O)cc2C1 [Compound 99, N-(3,4-Dichlorophenyl)-7-oxo-3,4,6,7-tetrahydro-2,6-naphthyridine-2(1H)-carboxamide]	> 5
O=C(Nc1ccc(C(F)(F)F)c(Cl)c1)N1CCc2c[nH]c(=O)cc2C1 [Compound 100, N-(3-Chloro-4-(trifluoromethyl)phenyl)-7-oxo-3,4,6,7-tetrahydro-2,6-naphthyridine-2(1H)-carboxamide]	> 5
O=C(Nc1ccc(Cl)c(Cl)c1)N1CCc2nonc2C1 [Compound 101, N-(3,4-Dichlorophenyl)-6,7-dihydro-[1,2,5]oxadiazolo[3,4-c]pyridine-5(4H)-carboxamide]	0.5 to 5
N#Cc1cc2c(cn1)CN(C(=O)Nc1ccc(Cl)c(Cl)c1)CC2 [Compound 102, 6-Cyano-N-(3,4-dichlorophenyl)-3,4-dihydro-2,7-naphthyridine-2(1H)-carboxamide]	0.5 to 5
N#Cc1cc2c(cn1)CCN(C(=O)Nc1ccc(Cl)c(Cl)c1)C2 [Compound 103, 7-Cyano-N-(3,4-dichlorophenyl)-3,4-dihydro-2,6-naphthyridine-2(1H)-carboxamide]	0.5 to 5
O=C(Nc1ccc(C(F)(F)F)c(Cl)c1)N1CCc2cc(F)ncc2C1 [Compound 104, N-(3-chloro-4-(trifluoromethyl)phenyl)-6-fluoro-3,4-dihydro-2,7-naphthyridine-2(1H)-carboxamide]	< 0.5
COc1cc2c(cn1)CCN(C(=O)Nc1ccc(Cl)c(Cl)c1)C2 [Compound 105, N-(3,4-Dichlorophenyl)-7-methoxy-3,4-dihydro-2,6-naphthyridine-2(1H)-carboxamide]	> 5
O=C(Nc1ccc(Cl)c(Cl)c1)N1CCc2cc(F)c(F)cc2C1 [Compound 106, N-(3,4-Dichlorophenyl)-6,7-difluoro-3,4-dihydroisoquinoline-2(1H)-carboxamide]	< 0.5
COc1cc2c(cn1)CCN(C(=O)Nc1ccc(C(F)(F)F)c(Cl)c1)C2 [Compound 107, N-(3-Chloro-4-(trifluoromethyl)phenyl)-7-methoxy-3,4-dihydro-2,6-naphthyridine-2(1H)-carboxamide]	> 5
